The text below walks through data of publication PMC6058720, “Dual-ligand modified liposomes provide effective local targeted delivery of lung-cancer drug by antibody and tumor lineage-homing cell-penetrating peptide” (Drug Delivery, 2018).

The structures appear in SMILES notation. In brackets after ≈: the same amount, converted by molar mass.

Data set [1] is described as follows: In vitro drug release study (dialysis, PBS pH 7.4). It is filed as physicochemical. The conditions noted are these: PBS pH 7.4, 37 °C, over 96 h, dialysis under sink conditions. Here is the method: Briefly, 1 mL of dl-TPL-lip, CA IX-TPL-lip, CPP33-TPL-lip, TPL-lip, and free TPL solution (0.05 mg/mL) was placed into dialysis tubes with a molecular cut-off of MWCO 12–14 kDa and dialyzed in 10 mL of PBS (pH 7.4) at 37 °C. At predetermined time intervals, 100 μL of release medium was taken out and replaced with equal volume of fresh medium. The concentration of TPL in release medium was then determined by UPLC.

The test system of data set [2] is orthotopic lung tumor (A549-Red-FLuc cells). In words: Anti-cancer effect in orthotopic mice model of lung cancer (bioluminescence imaging). In kind it is in vivo, BALB/c nu/nu mice. The conditions noted are these: pulmonary delivery, 0.3 mg/kg, four doses; control increased ∼6-fold; n = 5. Here is the method: An orthotopic lung tumor-bearing mice model was established as previously reported. Briefly, the male BALB/c nu/nu mice (7–8 weeks) were anesthetized with 5% of chloral hydrate and 100 μL of A549-Red-FLuc cells (2 × 10^6 cells) solution in Matrigel (1:1). Experimental solutions were injected percutaneously into the right lateral thorax of each mouse using a 1 mL syringe with 29-gauge needle. On day seven after tumor cell inoculation, bioluminescence was measured using the IVIS Lumina XR system (Caliper, Hopking, MA) to check the successful establishment of lung cancer. D-luciferin substrate (i.p., 150 mg/kg in 0.9% saline solution) was injected 15 min before bioluminescence imaging. On day 19 after tumor cell inoculation, the mice were sacrificed and lungs were immediately resected.
On day seven following tumor cells inoculation, the orthothopic lung tumor-bearing mice (n = 30) were grouped into six treatment groups based on equivalent signal intensity of the tumor bioluminescence: Free TPL, TPL-lip, CA IX-TPL-lip, CPP33-TPL-lip, dl-TPL-lip, and control group with saline. […] Tumor growth was monitored weekly by bioluminescence imaging as before, during, and after the TPL treatment. Body weight of the mice was recorded weekly during the course of the study. […]
The TPL pharmacokinetic parameters in mice after endotracheal administration were calculated and summarized by DAS 2.1.1. […]

Data set [3] in a line: Pharmacokinetics study after pulmonary (endotracheal) administration to rats. The arrangement: species or system Sprague Dawley rats. The conditions noted are these: rat, in vivo, 0.5 mg/kg. Here is the method:
Sprague–Dawley (SD) rats were divided randomly into five groups (n = four per group). Rats were fasted for 12 h before the experiment, but allowed water ad libitum. Free TPL, TPL-lip, CPP33-TPL-lip, CA IX-TPL-lip, and dl-TPL-lip were administered directly via pulmonary delivery using a Microsprayer Aerosolizer Pulmonary Aerosol Kit for Mouse Model PAK-MSA (Penn-Century, Inc. Wyndmoor, PA19038, USA) at a dose of 0.5 mg/kg. Blood samples (0.4 mL) were obtained before dosing and at designated time points (0.083, 0.5, 1, 2, 4, 6, 8, 12 h). The samples were collected into heparinized tube from the suborbital veins and were centrifuged for 10 min at 4,000 rpm. The plasma was analyzed by Agilent 1290 Ultra High Performance Liquid Chromatograph with Agilent 6460 Triple Quadrupole Mass Spectrometer system (UHPLC-QQQ MS/MS, Santa Clara, USA) (Xue et al., [2012]; Zhuang et al., [2013]).
The TPL pharmacokinetic parameters in […] after endotracheal administration were calculated and summarized by DAS 2.1.1. Statistical analyses for anti-cancer effect study were evaluated by two-way ANOVA with Bonferroni posttests using GraphPad Prism 6 (GraphPad Software, Inc, La Jolla, USA). […]
44 Analytical method for pharmacokinetics study
45 Hydrocortisone was added (50 μL, 200 ng/mL) as an internal standard (IS) to 0.2
46 mL of plasma. The samples were mixed, and extracted with ethyl acetate (750 μL)
47 followed by vortexing for 4min and centrifuging for 10min at 8000 rpm. The upper
48 organic phase was carefully transferred and e vaporated to dryness in vacuum. The
49 residues were dissolved in 100μL methanol and centrifuged at 4000rpm for 10 min,
50 then the supernatant was collected and injected into the Agilent 1290 Ultra High
51 Performance Liquid Chromatograph with Agilent 6460 Triple Quadrupole Mass
52 Spectrometer system (UHPLC-QQQ MS/MS).
53 Chromatography conditions: Waters Acquity BEH C18 (2.1×50 mm); Mobile phase
54 0.1% formic acid in water: 0.1% formic acid in acetonitrile =80:20 v/v; Flow rate 0.35
55 mL/min; Running time 10 min.
56 Mass spectrometer conditions: Ion Source Agilent Jet Stream electro spray
57 ionization (AJS ESI); Positive mode; Gas Temperature 300 °C; Gas flow rate 8 L/min;
58 Nebulizer 40 psi; SheathGasHeater 350°C; SheathGasFlow 8 L/min; Capillary 3500
60 Firstly, optimization of mass spectrometry was initiated by automatic tuning of the
61 instrument (Figure S1). Method validation was conducted before the sample analysis.
62 The specificity of the established method was assessed by comparing the
63 chromatograms of blank plasma, blank plasma with TPL, blank plasma with IS, and
64 plasma after endotracheal administration (Figure S2). The calibration curve in rat
65 plasma was linear over the ranges 10-2500 ng/mL in rat plasma (y=0.375035x +
67 accuracy and precision both intra-day and inter-day were less than 10%. The method
68 was sufficiently accurate and consistent for proceeding for the biological analysis of
69 TPL (Table S1). Therefore, the established method was applied to the analysis of rat

Details of data set [4]: method as in Chen et al., [2012a]; Reno et al., [2015]; Li et al., [2016]. As to conditions: ref Chen et al., [2012a]; Reno et al., [2015]; Li et al., [2016]; cited from earlier work.
Setting [5] is: Sprague-Dawley, inhaled or intranasal, endotracheal administration, plasma TPL, n = 4.

On to `CC(C)[C@]12O[C@H]1[C@@H]1O[C@]13[C@]1(O[C@H]1C[C@H]1C4=C(CC[C@@]13C)C(=O)OC4)[C@@H]2O` [Free TPL, Triptolide], for which, in data set [1], the TPL release profile entry is “rapid release profile”. Also, the “Increase of tumors (bioluminescence) on day 31” value in data set [2] was approximately 3 fold. In data set [3] (setting [5]), the AUC(0-inf) was 225 ± 63.8 ng·h/mL, the AUC(0-t) stood at 186 ± 36.5 ng·h/mL, the Cmax was found to be 188 ± 42.7 ng/mL and the time to peak (Tmax) is 4.98 min. Moreover, in data set [3], the “Cmax of TPL in blood compared to liposomal TPL” value was “three-fold higher” and the t1/2 is 2.98 ± 0.54 H. Also, in data set [4], the Solubility in water is 0.017 mg/mL (≈ 47.2 µM).

One may read the AUC(0-inf) as the area under the concentration-time curve extrapolated to infinity. Low readings indicate low exposure, high ones high exposure. Broadly, the AUC(0-t) is the area under the concentration-time curve up to a stated or last time point. A low value points to less exposure. By Cmax is commonly meant the highest concentration seen after dosing. Broadly, the Tmax is the time at which the peak concentration occurs.
